Test results published in US10316020B2, “Indane derivatives and the use thereof as soluble guanylate cyclase activators” (NOVARTIS AG, priority 2015, dated 2019).

biological target: T1, soluble guanylate cyclase (GUCYA3/GUCYB3) overexpressed in CHO cells (Homo sapiens, UniProt Q02108+Q02153); experiment: CHO cellular assay (cGMP production, HTRF); type: cell-based; conditions: CHO GUCY clone 8E10; assay buffer with 1 mM IBMX, 20 uM ODQ; 1 h at room temperature; cGMP HTRF; quantification limit 0.0005 μM; read-out: Mean EC50
T1 construct: expressed in transfected cells
T1 sequence (Q02108 1-690 partner): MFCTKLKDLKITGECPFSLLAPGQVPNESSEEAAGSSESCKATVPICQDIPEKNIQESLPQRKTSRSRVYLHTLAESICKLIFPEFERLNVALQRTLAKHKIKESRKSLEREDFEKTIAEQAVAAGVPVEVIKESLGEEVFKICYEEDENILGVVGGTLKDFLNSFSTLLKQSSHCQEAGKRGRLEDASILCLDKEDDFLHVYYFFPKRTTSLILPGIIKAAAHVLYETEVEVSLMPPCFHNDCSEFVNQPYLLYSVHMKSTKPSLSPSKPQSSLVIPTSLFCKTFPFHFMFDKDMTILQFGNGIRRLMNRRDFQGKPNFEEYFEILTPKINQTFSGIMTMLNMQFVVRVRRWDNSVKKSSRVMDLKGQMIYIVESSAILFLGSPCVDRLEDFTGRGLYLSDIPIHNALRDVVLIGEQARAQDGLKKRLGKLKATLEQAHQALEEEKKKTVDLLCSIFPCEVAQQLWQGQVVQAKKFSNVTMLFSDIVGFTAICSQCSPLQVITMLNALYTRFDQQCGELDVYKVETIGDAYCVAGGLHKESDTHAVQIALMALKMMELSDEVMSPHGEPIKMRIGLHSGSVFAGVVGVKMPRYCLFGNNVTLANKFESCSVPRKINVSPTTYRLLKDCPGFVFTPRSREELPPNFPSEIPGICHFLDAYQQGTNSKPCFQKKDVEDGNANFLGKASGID
T1 sequence (Q02153 1-619): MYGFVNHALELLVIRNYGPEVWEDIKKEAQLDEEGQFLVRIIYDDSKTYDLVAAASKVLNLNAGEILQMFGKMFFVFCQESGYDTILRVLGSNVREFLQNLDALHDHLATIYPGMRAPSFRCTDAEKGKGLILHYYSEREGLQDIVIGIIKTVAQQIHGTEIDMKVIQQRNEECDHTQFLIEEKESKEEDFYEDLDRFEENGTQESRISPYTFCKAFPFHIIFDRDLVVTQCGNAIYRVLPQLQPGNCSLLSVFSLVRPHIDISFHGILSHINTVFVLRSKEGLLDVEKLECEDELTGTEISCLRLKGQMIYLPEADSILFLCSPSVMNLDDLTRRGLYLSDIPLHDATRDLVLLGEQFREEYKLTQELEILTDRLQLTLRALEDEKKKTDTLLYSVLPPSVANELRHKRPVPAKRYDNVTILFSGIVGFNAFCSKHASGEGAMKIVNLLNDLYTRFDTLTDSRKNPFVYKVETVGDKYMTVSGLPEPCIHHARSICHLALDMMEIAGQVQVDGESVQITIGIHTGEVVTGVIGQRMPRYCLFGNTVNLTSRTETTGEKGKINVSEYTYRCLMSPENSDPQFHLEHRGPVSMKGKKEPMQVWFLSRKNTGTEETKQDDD
Text: Chinese hamster ovary (CHO) cells overexpressing soluble guanylate cyclase were generated to test the effect of sGC activators in a cellular context. Human cDNAs for GUCYA3 (RefSeq: NM_000856.3) and GUCYB3 (RefSeq: NM_000857.1) were amplified by PCR from a HUVEC (Human Umbilical Vein Endothelial Cells) cDNA library and cloned into mammalian expression vectors. CHO K1 cells (ATCC CCL-61) were transfected using Lipofectamine 2000 following manufacturer's instructions and stably expressing clones were identified by antibiotic selection. CHO GUCY clone 8E10 was used for subsequent experiments.
Cells were seeded at a density of 3000 cells/well in white 384-well proxyplates (Perkin Elmer) and incubated overnight, then the medium was removed and cells were washed with assay buffer (HBSS, 0.1% BSA, 1 mM IBMX, 20 uM ODQ). sGC activators were serially diluted in DMSO, then diluted in assay buffer prior to adding to cells (10 ul/well, final DMSO concentration 0.5%). Cells were incubated with compounds for 1 h at room temperature, then assayed for cGMP production using Cisbio cGMP HTRF kit (62GM2PEC) according to manufacturer's instructions.
The EC50s are calculated based on the amount of cGMP interpolated from the standard curve, using a 4-parameter sigmoidal dose-response.
Compounds of invention are active on sGC activation. Data in Table 1 collected using the assay of Biological Example 1.

| Structure (SMILES) | EC50 [nM] |
| --- | --- |
| CCc1nc(NC2CCc3cccc(-c4cccc(-n5ncc(C(=O)O)c5OC)n4)c32)ccc1C1=CCN(C(=O)C2CC2)CC1 (single isomer, unassigned; (-)) [Example 16B, (−)-1-(6-(3-((1′-(Cyclopropanecarbonyl)-2-ethyl-1′,2′,3′,6′-tetrahydro-[3,4′-bipyridin]-6-yl)amino)-2,3-dihydro-1H-inden-4-yl)pyridin-2-yl)-5-methoxy-1H-pyrazole-4-carboxylic acid] | 279 |
| CCc1cc(NC2CCc3cccc(-c4cccc(-n5ncc(C(=O)O)c5N)n4)c32)ccc1C1CCN(C(=O)C2CC2)CC1 (single isomer, unassigned; (-)) [Example 18B, (−)-5-Amino-1-(6-(3-((4-(1-(cyclopropanecarbonyl)piperidin-4-yl)-3-ethylphenyl)amino)-2,3-dihydro-1H-inden-4-yl)pyridin-2-yl)-1H-pyrazole-4-carboxylic acid] | 31 |
| CCc1nc(NC2CCc3cccc(-c4cccc(-n5ncc(C(=O)O)c5NC)c4)c32)ccc1C1=CCN(C(=O)C2CC2)CC1 (single isomer, unassigned; (-)) [Example 22B, (−)-1-(3-(3-((1′-(Cyclopropanecarbonyl)-2-ethyl-1′,2′,3′,6′-tetrahydro-[3,4′-bipyridin]-6-yl)amino)-2,3-dihydro-1H-inden-4-yl)phenyl)-5-(methylamino)-1H-pyrazole-4-carboxylic acid] | 40.4 |
| CCc1cc(NC2CCc3cccc(-c4cccc(-n5ncc(C(=O)O)c5NC)c4)c32)ccc1C1CCN(C(=O)C2CC2)CC1 (single isomer, unassigned; enantiomer-1) [Example 12A, (enantiomer-1)-1-(3-(3-((4-(1-(Cyclopropanecarbonyl)piperidin-4-yl)-3-ethylphenyl)amino)-2,3-dihydro-1H-inden-4-yl)phenyl)-5-(methylamino)-1H-pyrazole-4-carboxylic acid] | 53 |
| CCc1cc(NC2CCc3cccc(-c4cccc(-n5ncc(C(=O)O)c5NC)c4)c32)ccc1C1CCN(C(=O)C2CC2)CC1 (single isomer, unassigned; enantiomer-2) [Example 12B, (enantiomer-2)-1-(3-(3-((4-(1-(Cyclopropanecarbonyl)piperidin-4-yl)-3-ethylphenyl)amino)-2,3-dihydro-1H-inden-4-yl)phenyl)-5-(methylamino)-1H-pyrazole-4-carboxylic acid] | < 0.5 |
| CCc1cc(C[C@@H]2CCc3cccc(-c4cccc(-n5ncc(C(=O)O)c5OC)c4)c32)ccc1C1CCN(C(=O)C2CC2)CC1 [Example 1B, (−)-(S)-1-(3-(3-(4-(1-(Cyclopropanecarbonyl)piperidin-4-yl)-3-ethylbenzyl)-2,3-dihydro-1H-inden-4-yl)phenyl)-5-methoxy-1H-pyrazole-4-carboxylic acid] | 16 |
| CCc1cc(C[C@H]2CCc3cccc(-c4cccc(-n5ncc(C(=O)O)c5OC)c4)c32)ccc1C1CCN(C(=O)[C@H](C)O)CC1 [Example 2A, (+)-1-(3-((R)-3-(3-Ethyl-4-(1-((S)-2-hydroxypropanoyl)piperidin-4-yl)benzyl)-2,3-dihydro-1H-inden-4-yl)phenyl)-5-methoxy-1H-pyrazole-4-carboxylic acid] | < 0.5 |
| CCc1cc(C[C@@H]2CCc3cccc(-c4cccc(-n5ncc(C(=O)O)c5OC)c4)c32)ccc1C1CCN(C(=O)[C@H](C)O)CC1 [Example 2B, (−)-1-(3-((S)-3-(3-Ethyl-4-(1-((S)-2-hydroxypropanoyl)piperidin-4-yl)benzyl)-2,3-dihydro-1H-inden-4-yl)phenyl)-5-methoxy-1H-pyrazole-4-carboxylic acid] | 34 |
| CCc1cc(N[C@@H]2CCc3cccc(-c4cccc(-n5ncc(C(=O)O)c5OC)c4)c32)ccc1C1CCN(C(=O)C2CC2)CC1 [Example 3B, (−)-(R)-1-(3-(3-((4-(1-(Cyclopropanecarbonyl)piperidin-4-yl)-3-ethylphenyl)amino)-2,3-dihydro-1H-inden-4-yl)phenyl)-5-methoxy-1H-pyrazole-4-carboxylic acid] | 29 |
| CCc1cc(O[C@H]2CCc3cccc(-c4cccc(-n5ncc(C(=O)O)c5OC)c4)c32)ccc1C1CCN(C(=O)[C@H](C)O)CC1 [Example 6, 1-(3-((S)-3-(3-Ethyl-4-(1-((S)-2-hydroxypropanoyl)piperidin-4-yl)phenoxy)-2,3-dihydro-1H-inden-4-yl)phenyl)-5-methoxy-1H-pyrazole-4-carboxylic acid] | < 0.5 |
| CCc1cc(C[C@H]2CCc3cccc(-c4cccc(-n5ncc(C(=O)O)c5OC)n4)c32)ccc1C1CCN(C(=O)C2CC2)CC1 [Example 13, (+)-(R)-1-(6-(3-(4-(1-(Cyclopropanecarbonyl)piperidin-4-yl)-3-ethylbenzyl)-2,3-dihydro-1H-inden-4-yl)pyridin-2-yl)-5-methoxy-1H-pyrazole-4-carboxylic acid] | < 0.5 |
| CCc1cc(O[C@H]2CCc3cccc(-c4cccc(-n5ncc(C(=O)O)c5OC)n4)c32)ccc1C1CCN(C(=O)C2CC2)CC1 [Example 14, (S)-1-(6-(3-(4-(1-(Cyclopropanecarbonyl)piperidin-4-yl)-3-ethylphenoxy)-2,3-dihydro-1H-inden-4-yl)pyridin-2-yl)-5-methoxy-1H-pyrazole-4-carboxylic acid] | < 0.5 |
| CCc1cc(O[C@H]2CCc3cccc(-c4cccc(-n5ncc(C(=O)O)c5OC)n4)c32)ccc1C1CCN(C(=O)[C@H](C)O)CC1 [Example 15, 1-(6-((S)-3-(3-Ethyl-4-(1-((S)-2-hydroxypropanoyl)piperidin-4-yl)phenoxy)-2,3-dihydro-1H-inden-4-yl)pyridin-2-yl)-5-methoxy-1H-pyrazole-4-carboxylic acid] | 1 |
| CCc1cc(O[C@H]2CCc3cccc(-c4cccc(-n5ncc(C(=O)O)c5N)n4)c32)ccc1C1CCN(C(=O)C2CC2)CC1 [Example 19, (S)-5-Amino-1-(6-(3-(4-(1-(cyclopropanecarbonyl)piperidin-4-yl)-3-ethylphenoxy)-2,3-dihydro-1H-inden-4-yl)pyridin-2-yl)-1H-pyrazole-4-carboxylic acid] | 3 |
| CCc1cc(C[C@H]2CCc3cccc(-c4cccc(-n5ncc(C(=O)O)c5N)c4)c32)ccc1C1CCN(C(=O)C2CC2)CC1 [Example 20, (+)-(R)-5-Amino-1-(3-(3-(4-(1-(cyclopropanecarbonyl)piperidin-4-yl)-3-ethylbenzyl)-2,3-dihydro-1H-inden-4-yl)phenyl)-1H-pyrazole-4-carboxylic acid] | < 0.5 |
| CCc1cc(C[C@H]2CCc3cccc(-c4cccc(-n5ncc(C(=O)O)c5NC)c4)c32)ccc1C1CCN(C(=O)C2CC2)CC1 [Example 21, (R)-1-(3-(3-(4-(1-(cyclopropanecarbonyl)piperidin-4-yl)-3-ethylbenzyl)-2,3-dihydro-1H-inden-4-yl)phenyl)-5-(methylamino)-1H-pyrazole-4-carboxylic acid] | < 0.5 |
| CCc1cc(C[C@H]2CCc3cccc(-c4cccc(-n5ncc(C(=O)O)c5N)n4)c32)ccc1C1CCN(C(=O)C2CC2)CC1 [Example 23, (R)-5-Amino-1-(6-(3-(4-(1-(cyclopropanecarbonyl)piperidin-4-yl)-3-ethylbenzyl)-2,3-dihydro-1H-inden-4-yl)pyridin-2-yl)-1H-pyrazole-4-carboxylic acid] | < 0.5 |
